Source: ChEMBL document CHEMBL1133373, “Chemical and enzymatic modifications of integric acid and HIV-1 integrase inhibitory activity” (Bioorg Med Chem Lett, 2000)
The source made the active and inactive calls. No cut-off for these calls is given here.

How the values were obtained:
[1] = biological target: Human immunodeficiency virus type 1 integrase (Human immunodeficiency virus 1) (UniProt Q7ZJM1); experiment: Activity against HIV-1 integrase in range 5-20 uM compared to integric acid.
[2] = biological target: Human immunodeficiency virus type 1 integrase (Human immunodeficiency virus 1, UniProt Q7ZJM1); experiment: Inhibitory activity against HIV-1 integrase
Human immunodeficiency virus type 1 integrase, sequence (Q7ZJM1 whole entry): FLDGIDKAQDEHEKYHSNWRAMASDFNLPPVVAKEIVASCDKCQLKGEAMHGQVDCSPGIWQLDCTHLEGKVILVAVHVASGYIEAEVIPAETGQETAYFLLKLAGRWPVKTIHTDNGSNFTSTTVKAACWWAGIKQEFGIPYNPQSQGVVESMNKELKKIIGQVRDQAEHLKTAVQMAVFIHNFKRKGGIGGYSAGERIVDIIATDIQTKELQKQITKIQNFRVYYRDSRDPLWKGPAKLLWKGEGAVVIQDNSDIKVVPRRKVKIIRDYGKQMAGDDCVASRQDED

[3] = biological target: Human immunodeficiency virus type 1 integrase (Human immunodeficiency virus 1) (UniProt Q7ZJM1); experiment: Compound was tested for strand transfer activity against HIV-1 integrase at 50 uM; weak inhibition

Human immunodeficiency virus type 1 integrase (Human immunodeficiency virus 1), sequence (Q7ZJM1 as listed by the source): as the sequence (Q7ZJM1 whole entry) above

| Structure (SMILES) | Activity [1] | IC50 [2] [µM] | Activity [3] |
| --- | --- | --- | --- |
| C=C(C=O)[C@@H]1C[C@@]2(C)C(=CC1=O)[C@H](OC(=O)/C(C)=C/C(C)CCCC)CC[C@@H]2C(=O)N[C@@H](CC(C)C)C(=O)OC (stereo not given in full) | Active | 3 | – |
| C=C(C=O)[C@@H]1C[C@@]2(C)C(=CC1=O)[C@H](OC(=O)/C(C)=C/C(C)CCCC)CC[C@@H]2C(=O)O (stereo not given in full) | Active | 3 | – |
| CCCCC(C)/C=C(\C)C(=O)O[C@@H]1CC[C@H](C(=O)O)[C@@]2(C)C[C@@H]([C@H](C)C=O)C(=O)C=C12 (stereo not given in full) | Active | 11 | weak inhibition |
| CCCCC(C)/C=C(\C)C(=O)O[C@@H]1CC[C@H](C(=O)O)[C@@]2(C)CC([C@@H](C)C=O)C(=O)C=C12 (stereo not given in full) | Active | 11 | weak inhibition |
| CCCCC(C)/C=C(\C)C(=O)O (stereo not given) | Active | 12 | – |
| C=CC(=C)[C@@H]1C[C@@]2(C)C(=CC1=O)[C@H](OC(=O)/C(C)=C/C(C)CCCC)CC[C@@H]2C(=O)O (stereo not given in full) | – | 30 | – |
| C=C(C=O)[C@@H]1C[C@@]2(C)C(=CC1=O)[C@H](OC(=O)/C(C)=C/C(C)CCCC)CC[C@@H]2C(=O)O/C(=N\C1CCCCC1)NC1CCCCC1 (stereo not given in full) | – | 88 | – |
| C=C(C=O)[C@@H]1C[C@@]2(C)C(=CC1=O)[C@H](OC(=O)/C(C)=C/C(C)CCCC)CC[C@@H]2C(=O)OP(=O)(OCC)OCC (stereo not given in full) | – | 81 | – |
| C=C(CO)[C@@H]1C[C@@]2(C)C(=C[C@H]1O)[C@H](OC(=O)/C(C)=C/C(C)CCCC)CC[C@@H]2C(=O)O (stereo not given in full) | – | 73 | – |
| CCCCC(C)/C=C(\C)C(=O)O[C@@H]1CC[C@H](C(=O)O)[C@@]2(C)C[C@H]3[C@@H](C)CO[C@]3(O)C[C@H]12 (stereo not given in full) | – | 45 | – |
| CCCCC(C)/C=C(\C)C(=O)O[C@@H]1CC[C@H](C(=O)O)[C@@]2(C)C[C@@H](C(C)C(O)O)C(=O)C=C12 (stereo not given in full) | – | 40 | – |
| C=C(C=O)[C@@H]1C[C@@]2(C)C(=CC1=O)[C@H](OC(=O)/C(C)=C/C(C)CCCC)CC[C@@H]2C(=O)NCCNC(=O)[C@H]1CC[C@@H](OC(=O)/C(C)=C/C(C)CCCC)C2=CC(=O)[C@H](C(=C)C=O)C[C@@]21C (stereo not given in full) | Active | 10 | – |
| C=C/C(C)=C1\C[C@@]2(C)C(=CC1=O)[C@H](OC(=O)/C(C)=C/C(C)CCCC)CC[C@@H]2C(=O)O (stereo not given in full) | – | 75 | – |
| C=C(C=O)[C@@H]1C[C@@]2(C)C(=CC1=O)[C@H](OC(=O)/C(C)=C/C(C)CCCC)CC[C@@H]2C(=O)ON[C@H](C(=O)OC)c1ccccc1 (stereo not given in full) | Active | 5 | – |
| C=C(C=O)[C@@H]1C[C@@]2(C)C(=CC1=O)[C@H](OC(=O)/C(C)=C/C(C)CCCC)CC[C@@H]2C(=O)N1CCN(C(=O)[C@H]2CC[C@@H](OC(=O)/C(C)=C/C(C)CCCC)C3=CC(=O)[C@H](C(=C)C=O)C[C@@]32C)CC1 (stereo not given in full) | Active | 24 | – |
| C=C(C=O)[C@@H]1C[C@@]2(C)C(=CC1=O)[C@H](OC(=O)/C(C)=C/C(C)CCCC)CC[C@@H]2C(=O)ON[C@@H](C(=O)OC)c1ccccc1 (stereo not given in full) | Active | 5 | – |
| CC1=C2C[C@@]3(C)C(=CCC[C@@H]3C(=O)O)C=C2OC1=O | – | > 100 | – |
| CCCCC(C)/C=C(\C)C(=O)O[C@@H]1CC[C@H](C(=O)O)[C@@]2(C)CC3C(C)C(O)OC3(O)C=C12 (stereo not given in full) | – | 40 | – |
| CCCCC(C)/C=C(\C)C(=O)O[C@@H]1CC[C@H](C(=O)O)[C@@]2(C)C[C@H]3[C@H](C)CO[C@]3(O)C[C@H]12 (stereo not given in full) | – | 100 | – |
